Assay results reported in patent EP2628482A1, “Rho kinase inhiitors for use in the treatment of neuroblastoma” (Academisch Medisch Centrum, priority 2012, dated 2013).
Counter-ions that a name gives are not always drawn.

Key:
ROCK = conditions: cited from earlier work
off-target kinases = conditions: reported by Aerie Pharmaceuticals; cited from earlier work
SHEP2 cells = assay: Immunofluorescence (actin / tubulin staining); format: cell-based; conditions: 50 micromolar, 24 hours of treatment
[1] = tested on: neuroblastoma cell lines (IMR32, SJNB8, SKNBE, SY5Y, SHEP2, SKNAS); assay: Light microscopy of phenotypical changes after ROCK inhibitor treatment; format: cell-based; conditions: 25µM, 65 hours; cell bodies smaller, more elongated, neurite outgrowths appear
[2] = tested on: neuroblastoma cell lines (SKNBE, IMR, SJNB8, SHEP2, SKNAS, SY5Y); assay: MTT assay (cell viability); format: cell-based; conditions: for cell viability: all 6 neuroblastoma cell lines, 72 hours, 3 to 200 µM; for IC50: range over 6 neuroblastoma cell lines, 72 hours treatment, dose efficacy curves, read-out: IC50 (concentration drug needed for 50% cell viability reduction)
Procedure: To determine the sensitivity of the cell lines for the ROCK-inhibitors Y27632 and HA 1077 MTT assays were done. […] The IC50 (concentration drug needed for 50% cell viability reduction) of Y27632 determined by dose efficacy curves varied from 18 to 90 µM.
Cells were plated in a 10-30% confluence in a 96-well plate and treated after 24 hours with Y27632 (=Y27632 dihydrochloride; Tocris; Cat.nr. 1254) and HA1077 (=Fasudil hydrochloride; Tocris; Cat.nr. 0541) in a concentration ranging from 3 to 200 µM. 72 hours after treatment, 10 µl of Thyazolyl blue tetrazolium bromide (MTT, Sigma M2128) was added. After 4 hours of incubation 100 µl of 10% SDS, 0.01 M HCI was added to stop the reaction. The absorbance was measured at 570 nm and 720 nm using a platereader (biotech). The IC50 (concentration drug needed for 50% cell viability reduction) was calculated using concentration vector curves.

Row | SMILES | potency against ROCK (ROCK) | number of off-target kinases tested at which activity was seen (off-target kinases) | actin organization (phalloidin staining) (SHEP2 cells) | tubulin localization (SHEP2 cells) | phenotype of the cells (light microscope) [1] | cell viability [2] | IC50 [2] [µM]
1 | CN(C)C(C(=O)Nc1ccc2c(=O)[nH]ccc2c1)c1ccsc1 (centres unmarked) [AR-12286] | nanomolar potency | 5 |  |  |  |  | 
2 | O=S(=O)(c1cccc2cnccc12)N1CCCNCC1 [HA 1077, Fasudil hydrochloride] |  |  | structured actin fibres (green) disappear | moves from a nuclear localization towards the cytoplasm | more neuronal-like (differentiated) phenotype | decrease in viability | 15 to 45
3 | C[C@@H](N)[C@H]1CC[C@H](C(=O)Nc2ccncc2)CC1 [Y27632, Y27632 dihydrochloride] |  |  |  |  | more neuronal-like (differentiated) phenotype | decrease in viability | 18 to 90
4 | C[C@@H](N)c1ccc(C(=O)Nc2ccnc3[nH]ccc23)cc1 [Y-39983/SNJ-1656/RKI-983] |  | 25 |  |  |  |  | 
